According to patent US5721211A, “Compositions and methods for treating small cell and nonsmall cell lung cancers” (The George Washington University, priority 1993, dated 1998):
Ends that are not written are not given here.

Key:
[1] = test system: lung cancer cells or plasma membranes derived therefrom; assay: direct binding of labeled thymosin to lung cancer cells or plasma membranes; settings: 125I-Tyr labeled ligand
Excerpt: Direct, i.e., noncompetitive, binding of a labeled ligand to intact cells or plasma membranes may be determined. […] These and other experiments not detailed here indicate that the thymosins may not have specific receptors. Palaszynski, E., Biochemical Studies on Thymosin α1, Ph.D. Thesis, George Washington University, Washington, D.C., 1981. It is thus all the more suprising and unexpected that certain thymosins have such profound inhibitory effects on the binding of VIP to its specific receptors and on the growth promoting effects of VIP in lung cancer cells.

[2] = test system: NCI-H510 lung cancer cells; assay: NCI-H510 growth in vivo; design: species or system nude mice; settings: 10 μg s.c. daily, week 4, mean of 3 tumors
Experimental: In a procedure substantially as set forth in Moody et al. (1993) supra, NCI-H510 lung cancer cells were injected into nude mice, and tumors formed after one week. The compounds listed in Table V below (produced as described above) were injected (100 microliters) subcutaneously daily. Tumors were measured at week 4.

[3] = test system: NCI-H1299 lung cancer cells; assay: 3H-arachidonic acid (AA) release; format: cell-based; settings: 1 μM; 4 determinations
Experimental: In a procedure substantially as set forth in Moody et al. (1993) supra, NCI-H1299 lung cancer cells were loaded with ^3 H-AA overnight, and after removal of free ^3 H-AA cells, were treated with increasing concentrations of THNα1(1-16)amide (Δ), THNα1 (.largecircle.) and THNα1amide (.box-solid.) (produced as described above). The mean value ± S.E. of 4 determinations is indicated; *,p<0.05; ** p<0.01.

[4] = test system: tumors of both SCLC and NSCLC types of lung cancer cells; design: species or system nude mice; settings: mouse, in vivo
[5] = test system: NCI-H720 (lung carcinoid cancer cells); assay: soft agar colonization, NCI-H720; format: cell-based; settings: 1 μM; for NCI-H720 (carcinoid) colonies: colonies greater than 50 μm, mean ± S.E. of 3
Experimental: (§1) The effects of THNα1 on the growth of lung cancer cell lines was studied. Single viable cells were plated in soft agar as previously described (Mahmoud, S., et al., Life Sci., 44:367 (1989)), and, after two weeks, the colonies were stained with 0.1% p-iodonitrotetrazolium violet.
(§2) The experimental conditions of Example 3 were repeated with NCI-H720 (lung carcinoid cancer cells) and NCI-N417 (SCLC lung cancer cells) cell lines. Colonies were counted as before.

[6] = test system: NCI-N417 (SCLC lung cancer cells); assay: soft agar colonization, NCI-N417; format: cell-based; settings: 1 μM; for (SCLC) N417 colonies: colonies greater than 50 μm, mean ± S.E. of 3
Experimental: as §1, §2

[7] = test system: lung cancer cells; assay: in vitro colonization of lung cancer cells (general statement); format: cell-based
Experimental: Candidate anti-lung cancer peptides and antibodies may be screened in vitro in a soft agar colonization assay such as that described by Mahmoud, S., et al., Life Sci., 44:367 (1989) which is herein incorporated by reference. In general, single viable lung cancer cells are plated in soft agar. After an appropriate growth period, such as 14 days, cell colonies may be stained with an appropriate cytochemical stain, and the stained cells viewed microscopically. Cytochemical stains are well known to those skilled in the art of histology.

Question: How did the “direct (noncompetitive) binding affinity” value [1] turn out when “(^125 I-Tyr)-labeled THNα1: 125I-Tyr labeled THNα1 used for direct binding analyses (SDAAVDTSSEITTKDLKEKKEVVEEAEN; ends and bridges not checked; also: 125I-Tyr label, place not given here; UniProt P06454 2-29, looked up)” was run?
Answer: bind with poor affinity

Question: Which results are given for “Ac-SDAAVDTSSEITTKDL-NH2 [THNα1-N16 (1-16) amide, Ac-Ser-Asp-Ala-Ala-Val-Asp-Thr-Ser-Ser-Glu-Ile-Thr-Thr-Lys-Asp- Leu-NH2]”?
Answer: Tumor volume [2]: 410 mm^3; Tumor volume ([2]; listed as THNα1-N16 (1-16)amide): strongly inhibit; 3H-AA release [3]: significantly stimulate

Question: “Ac-SDAAVDTSSEITTKDLKEKKEVVEEAEN [THNα1, thymosin α1]” was tested. Which toxic side effects [4] did it give?
Answer: No toxic side effects were observed

Question: How did the “N/No, NCI-H720” value [5] turn out when “thymosin β4 (SDKPDMAEIEKFDKSKLKKTETQEKNPLPSKETIEQEKQAGES; Thymosin beta-4; UniProt P62328 2-44, looked up) [THN β4, a 43-amino acid peptide, MW 4982]” was run?
Answer: 0.93

Question: What about the “NCI-H720 (carcinoid) colonies” value [5] of the same substance?
Answer: 68 ± 20

Question: And the “NCI-H720 (carcinoid) colonies” value ([5]; listed as THNβ4)?
Answer: did not influence colony number significantly

Question: And the “N/No, N417” value [6]?
Answer: 1.20

Question: And the “(SCLC) N417 colonies” value [6]?
Answer: 240 ± 68

Question: What about the “(SCLC) N417 colonies” value ([6]; listed as THNβ4) of the same substance?
Answer: did not influence colony number significantly

Question: What about the “colony formation of lung cancer cells in vitro” value [7] of the same substance?
Answer: little effect
